Measurements: patent publication US4968788A, “Biologically reversible phosphate and phosphonate protective gruops” (Board of Regents, The University of Texas System, priority 1989, dated 1990)

What was measured:
physchem = assay type: physicochemical
Protocol: Several tests have been performed with both types of protected compositions. […] The stabilities of these protected compositions were determined in aqueous buffered solutions having pH ranging from 1 to 10, and also under selected biological conditions. Except for the acetoxymethyl derivatives of the second type, these phosphoesters were relatively stable in a neutral environment. They reverted to their parent compounds in acidic or basic media.
The protected product was stable in neutral aprotic solvents such as benzene, diethyl ether and ethyl acetate. […] The half-life was greater than 4 hours.
These solutions were analyzed by (HPLC) high performance liquid chromatography (Waters model ALC 204). The disappearance of the bis(acyloxymethyl) phosphate was monitored by reversed-phase chromatography on a column of μ Bondapak-C18 (30 cm×4 mm i.d., 10 μm; Waters Assoc., Milford, Mass.) using solutions of 0.01M potassium phosphate buffer (pH 7.0) with methanol as the mobile phase (typically 25-50% alcohol).
The formation of intermediate B and mono(acetoxymethyl) phosphate C was monitored by ion-pair chromatography on μ Bondapak-C using the same buffer system as described above, except that tetrabutylammonium hydroxide was added to a concentration 2×10^-3 M, or by anion-exchange chromatography on a column of Partisil SAX (25 cm×4.6 mm i.d., 10 μm; Whatman) using a linear gradient of 0.01-0.1M potassium phosphate buffer (pH 6.5) as an eluent. The flow rates for these analyses and the ones described above ranged from 1.0 to 2.0 ml/min. The column effluents were monitored at 254 nm with a Schoeffel model 450 UV detector, and the concentrations were determined by comparison of the peak areas with those of reference standards.

[1] = degradation on incubation with mouse plasma; assay type: in vitro ADME
Protocol: (§1) (At appropriate intervals, aliquots (100 μl) of the incubation mixtures were diluted with 3 volumes of methanol and then agitated for 1 minute on a Vortex shaker. The precipitated protein was separated by centrifugation at 10,000×g for 5 minutes, and the supernatants were analyzed by HPLC as described above.)
(§2) was incubated at […] with mouse plasma and hog liver carboxylate esterase.

[2] = degradation on incubation with hog liver carboxylate esterase; assay type: in vitro ADME; details: pig, liver carboxylate esterase; 65 micrograms per milliliter, 37° C., pH 7.4, 8 milligrams protein per milliliter
Protocol: as §1, §2

[3] = test system: hog liver carboxylate esterase; test: as above; assay type: in vitro ADME
Protocol: as §1, §2

[4] = test system: Chinese hamster ovary cells; test: prevention of growth of Chinese hamster ovary cells in culture; assay type: cell-based
Protocol: Example 5 was repeated with the R substituent changed to fluorine (i.e., 2',5-dideoxy-5'-iodo-3'-O-acetyl-5-fluorouridine). There was a 15% yield of this product. This composition prevented the growth of Chinese hamster ovary cells in culture at a concentration of 5.0×10^-6 M [5-fluoro-2'-deoxyuridine (5-FUdR) control, 1.0×10^-6 M].
as §2

[5] = test system: P388 leukemia which is resistant to 5-fluorouracil; test: activity against P388 leukemia resistant to 5-fluorouracil; details: P388 resistant to 5-fluorouracil
[6] = 65 micrograms per milliliter, 37° C., 0.05M potassium phosphate buffer (pH 7.4), mouse plasma 50% by volume

## CC(C)(C)C(=O)OC1CCOP(=O)(Oc2ccccc2)O1 (stereo not shown) [Example 1]
physchem; organic solvents or aqueous buffers
  stability in organic solvents or aqueous buffers: stable
physchem; strong acids or bases
  conversion to phenyl phosphate with strong acids or bases: quantitatively converted to phenyl phosphate
[1]; 37° C., 30 minutes, mouse plasma
  reversion to phenyl phosphate in mouse plasma: reverted to phenyl phosphate

## CC(=O)OCOP(=O)(OCOC(C)=O)Oc1ccccc1 [Example 2, bis(acetoxymethyl) phenyl phosphate]
physchem; ethanol, water or 0.05M potassium phosphate buffer (pH 7.4)
  conversion in protonic solvents: slowly converted to mono(acetoxymethyl) phenyl phosphate
physchem; ethanol, water or 0.05M potassium phosphate buffer (pH 7.4), read-out: half-life in protonic solvents
  half-life: > 240 min
physchem; neutral aprotic solvents such as benzene, diethyl ether and ethyl acetate
  stability in neutral aprotic solvents: stable
[2]
  half-life: < 15 min
[3]; 65 micrograms per milliliter, 37° C., pH 7.4, 8 milligrams protein per milliliter
  degradation by hog liver carboxylate esterase (first to mono(acetoxymethyl) analog, then to phenyl phosphate): rapidly degraded
[1]; [6]
  degradation in mouse plasma (first to mono(acetoxymethyl) analog, then to phenyl phosphate): rapidly degraded
  half-life: < 15 min

## CC(C)(C)C(=O)OCOP(=O)(OCOC(=O)C(C)(C)C)Oc1ccccc1 [Example 3, bis(pivaloyloxymethyl) phenyl phosphate]
physchem; protonic solvents
  stability in protonic solvents: stable in protonic solvents
[1]; compared with the protected composition of Example 1 (so in the source)
  resistance to both chemical and enzymatic hydrolysis: much more resistant
[1]; pH 7.4, incubated with mouse plasma under the same conditions as in Example 2
  half-life: ~300 min

## O=c1[nH]c(=O)n([C@H]2C[C@H](O)[C@@H](CO)O2)cc1F [Example 5-FUdR, 5-fluoro-2'-deoxyuridine, reference compound]
[4]; Cricetulus griseus, read-out: concentration that prevented the growth of Chinese hamster ovary cells
  minimal effective concentration: 1 µM

## CC(=O)O[C@H]1C[C@H](n2cc(F)c(=O)[nH]c2=O)O[C@@H]1COP(=O)(OCOC(=O)C(C)(C)C)OCOC(=O)C(C)(C)C [Example 6]
[4]
  concentration that prevented the growth of Chinese hamster ovary cells: 5 µM

## CC(=O)O[C@H]1C[C@H](n2cc(F)c(=O)[nH]c2=O)O[C@@H]1COP(=O)(OCOC(=O)C(C)(C)C)OCOC(=O)C(C)(C)C [Example 7]
[4]
  concentration that prevented the growth of Chinese hamster ovary cells: 1 µM
[3]
  cleavage of acyloxymethyl groups and 3'-acetyl group with hog liver carboxylate esterase: successively cleaved to give 5-FdUMP
[1]
  cleavage of acyloxymethyl groups and 3'-acetyl group in mouse plasma: successively cleaved to give 5-FdUMP
[5]
  activity against P388 leukemia: active
